Measured values reported in patent US20080280920A1, “Plasminogen Activator Inhibitor-1 Inhibitors” (priority 2005, published 2008).

What was measured:
SR = assay: NCI anticancer screen, SR; assay type: cell-based, human; settings: Leukemia, 48 h
UACC-62 = assay: NCI anticancer screen, UACC-62; assay type: cell-based, human; settings: UACC-62, Melanoma, 48 h
HCT-116 = assay: NCI anticancer screen, HCT-116; assay type: cell-based, human; settings: HCT-116, Colon, 48 h
[1] = system: 60 different human cancer cell lines; assay: NCI in vitro anticancer screen (whole panel); assay type: cell-based
SF-295 = assay: NCI anticancer screen, SF-295; assay type: cell-based, human; settings: SF-295, CNS, 48 h
T-47D = assay: NCI anticancer screen, T-47D; assay type: cell-based, human; settings: Breast, 48 h
K-562 = assay: NCI anticancer screen, K-562; assay type: cell-based, human; settings: K-562, Leukemia, 48 h
SK-MEL-2 = assay: NCI anticancer screen, SK-MEL-2; assay type: cell-based, human; settings: SK-MEL-2, Melanoma, 48 h
NCI-H322M = assay: NCI anticancer screen, NCI-H322M; assay type: cell-based, human; settings: Non-Small Cell Lung, 48 h
A549/ATCC = assay: NCI anticancer screen, A549/ATCC; assay type: cell-based, human; settings: Non-Small Cell Lung, 48 h
KM12 = assay: NCI anticancer screen, KM12; assay type: cell-based, human; settings: KM12, Colon, 48 h
HCT-15 = assay: NCI anticancer screen, HCT-15; assay type: cell-based, human; settings: HCT-15, Colon, 48 h
NCI-H23 = assay: NCI anticancer screen, NCI-H23; assay type: cell-based, human; settings: NCI-H23, Non-Small Cell Lung, 48 h
CAKI-1 = assay: NCI anticancer screen, CAKI-1; assay type: cell-based, human; settings: CAKI-1, Renal, 48 h
NCI/ADR-RES = assay: NCI anticancer screen, NCI/ADR-RES; assay type: cell-based, human; settings: Breast, 48 h
NCI-H522 = assay: NCI anticancer screen, NCI-H522; assay type: cell-based, human; settings: NCI-H522, Non-Small Cell Lung, 48 h
MCF7 = assay: NCI anticancer screen, MCF7; assay type: cell-based, human; settings: MCF7, Breast, 48 h
COLO 205 = assay: NCI anticancer screen, COLO 205; assay type: cell-based, human; settings: COLO 205, Colon, 48 h
SN12C = assay: NCI anticancer screen, SN12C; assay type: cell-based, human; settings: 48 h, Renal
M14 = assay: NCI anticancer screen, M14; assay type: cell-based, human; settings: M14, Melanoma, 48 h
SK-OV-3 = assay: NCI anticancer screen, SK-OV-3; assay type: cell-based, human; settings: SK-OV-3, Ovarian, 48 h
BT-549 = assay: NCI anticancer screen, BT-549; assay type: cell-based, human; settings: BT-549, Breast, 48 h
SF-539 = assay: NCI anticancer screen, SF-539; assay type: cell-based, human; settings: SF-539, CNS, 48 h
MALME-3M = assay: NCI anticancer screen, MALME-3M; assay type: cell-based, human; settings: Melanoma, 48 h
DU-145 = assay: NCI anticancer screen, DU-145; assay type: cell-based, human; settings: DU-145, Prostate, 48 h
HT29 = assay: NCI anticancer screen, HT29; assay type: cell-based, human; settings: HT29, Colon, 48 h
MDA-MB-435 = assay: NCI anticancer screen, MDA-MB-435; assay type: cell-based, human; settings: MDA-MB-435, Breast, 48 h
IGR-OV1 = assay: NCI anticancer screen, IGR-OV1; assay type: cell-based, human; settings: IGR-OV1, Ovarian, 48 h
HS 578T = assay: NCI anticancer screen, HS 578T; assay type: cell-based, human; settings: Breast, 48 h
U251 = assay: NCI anticancer screen, U251; assay type: cell-based, human; settings: U251, CNS, 48 h
MDA-MB-231/ATCC = assay: NCI anticancer screen, MDA-MB-231/ATCC; assay type: cell-based, human; settings: Breast, 48 h
SK-MEL-5 = assay: NCI anticancer screen, SK-MEL-5; assay type: cell-based, human; settings: SK-MEL-5, Melanoma, 48 h
OVCAR-8 = assay: NCI anticancer screen, OVCAR-8; assay type: cell-based, human; settings: OVCAR-8, Ovarian, 48 h
[2] = Homo sapiens, read-out: LC50 (the source's name)

Work on `CCOC(=O)c1ccc(CNCc2cc(CN3CCN(c4ccccn4)CC3)c(O)c(OC)c2)cc1` [Compound Q012135T] yielded a GI50 (SR; Homo sapiens) of 4.18 µM, a CC50 (SR; [2]) of 4.18 µM and a TGI (SR) of 20.6 µM. The GI50 (UACC-62; Homo sapiens) was 20.1 µM, the CC50 (UACC-62; [2]) was 72.4 µM and the TGI (UACC-62) was 38.2 µM. It also gave a TGI (HCT-116) greater than 100 µM, a GI50 (HCT-116; Homo sapiens) of 18.6 µM and an LC50 (50% lethal concentration) (HCT-116; Homo sapiens) greater than 100 µM. The “growth and proliferation of human primary cancer cell-lines (in words)” value ([1]; NCI screen, 48 h) was “inhibited growth and proliferation”, the “cytostatic / cytotoxic effects on human cancer cell-lines (in words)” value ([1]; low micromolar concentrations, leukemia, melanoma, colon and central nervous system cell-lines) was “cytostatic and cytotoxic effects” and the GI50 (SF-295; Homo sapiens) was 19.6 µM. It also gave a CC50 (SF-295; [2]) of 73.5 µM, a TGI (SF-295) of 38.0 µM and a TGI (T-47D) of 49.2 µM. The GI50 (T-47D; Homo sapiens, T47D) was 14.7 µM, the CC50 (T-47D; Homo sapiens, T47D, read-out: LC50 (the source's name)) was greater than 100 µM and the GI50 (K-562; Homo sapiens, K562) was 3.4 µM. The CC50 (K-562; Homo sapiens, K562, read-out: LC50 (the source's name)) was 3.4 µM, the TGI (K-562) was 14.1 µM and the GI50 (SK-MEL-2; Homo sapiens) was 17.2 µM. For the same compound, the CC50 (SK-MEL-2; [2]) was 79.5 µM, the TGI (SK-MEL-2) was 36.9 µM and the GI50 (NCI-H322M; Homo sapiens) was 33.8 µM. The CC50 (NCI-H322M; [2]) was greater than 100 µM, the TGI (NCI-H322M) was greater than 100 µM and the GI50 (A549/ATCC; Homo sapiens) was 36.9 µM. The LC50 (A549/ATCC; Homo sapiens) was greater than 100 µM, the TGI (A549/ATCC) was greater than 100 µM and the GI50 (KM12; Homo sapiens) was 21 µM. The CC50 (KM12; [2]) was 73.3 µM, the TGI (KM12) was 39.2 µM and the TGI (HCT-15) was greater than 100 µM. It also gave a GI50 (HCT-15; Homo sapiens) of 26.9 µM, a CC50 (HCT-15; [2]) greater than 100 µM and a GI50 (NCI-H23; Homo sapiens) of 34.2 µM. It also gave a CC50 (NCI-H23; [2]) greater than 100 µM, a TGI (NCI-H23) greater than 100 µM and a TGI (CAKI-1) of 44.0 µM. For the same compound, the GI50 (CAKI-1; Homo sapiens) was 17.2 µM, the CC50 (CAKI-1; [2]) was greater than 100 µM and the TGI (NCI/ADR-RES) was 96.9 µM. For the same compound, the GI50 (NCI/ADR-RES; Homo sapiens) was 27.6 µM, the CC50 (NCI/ADR-RES; [2]) was greater than 100 µM and the GI50 (NCI-H522; Homo sapiens) was 15.5 µM. The LC50 (concentration killing 50% of cells) (NCI-H522; Homo sapiens) was 81.7 µM, the TGI (NCI-H522) was 35.6 µM and the GI50 (MCF7; Homo sapiens) was 16.3 µM. For the same compound, the CC50 (MCF7; [2]) was 69.9 µM, the TGI (MCF7) was 33.7 µM and the TGI (COLO 205) was 36.3 µM. It also gave a GI50 (COLO 205; Homo sapiens) of 17 µM, a CC50 (COLO 205; [2]) of 77.6 µM and a GI50 (SN12C; Homo sapiens) of 21.7 µM. The CC50 (SN12C; [2]) was greater than 100 µM, the TGI (SN12C) was 55.7 µM and the GI50 (M14; Homo sapiens) was 17.2 µM. For the same compound, the CC50 (M14; [2]) was 64.8 µM, the TGI (M14) was 33.4 µM and the GI50 (SK-OV-3; Homo sapiens) was 24.9 µM. The CC50 (SK-OV-3; [2]) was greater than 100 µM, the TGI (SK-OV-3) was 56.7 µM and the TGI (BT-549) was 30.0 µM. For the same compound, the GI50 (BT-549; Homo sapiens) was 15.5 µM, the CC50 (BT-549; [2]) was 58 µM and the GI50 (SF-539; Homo sapiens) was 16 µM. It also gave a CC50 (SF-539; [2]) of 57.2 µM, a TGI (SF-539) of 30.2 µM and a GI50 (MALME-3M; Homo sapiens) of 20.1 µM. It also gave a CC50 (MALME-3M; [2]) of 74.1 µM, a TGI (MALME-3M) of 38.6 µM and a TGI (DU-145) of 36.5 µM. For the same compound, the GI50 (DU-145; Homo sapiens) was 17 µM, the CC50 (DU-145; [2]) was 78.4 µM and the TGI (HT29) was 31.8 µM. The GI50 (HT29; Homo sapiens, HT-29) was 17.1 µM, the CC50 (HT29; Homo sapiens, HT-29, read-out: LC50 (the source's name)) was 59 µM and the GI50 (MDA-MB-435; Homo sapiens) was 16.9 µM. It also gave a CC50 (MDA-MB-435; [2]) of 87.1 µM, a TGI (MDA-MB-435) of 38.4 µM and a GI50 (IGR-OV1; Homo sapiens, IGROV-1) of 14.7 µM. For the same compound, the CC50 (IGR-OV1; Homo sapiens, IGROV-1, read-out: LC50 (the source's name)) was greater than 100 µM, the TGI (IGR-OV1) was 43.4 µM and the TGI (HS 578T) was 41.7 µM. The GI50 (HS 578T; Homo sapiens) was 19.1 µM, the CC50 (HS 578T; [2]) was 90.9 µM and the GI50 (U251; Homo sapiens, U-251) was 15.8 µM. For the same compound, the CC50 (U251; Homo sapiens, U-251, read-out: LC50 (the source's name)) was 65.7 µM, the TGI (U251) was 32.2 µM and the TGI (MDA-MB-231/ATCC) was 38.1 µM. For the same compound, the GI50 (MDA-MB-231/ATCC; Homo sapiens) was 18.1 µM, the CC50 (MDA-MB-231/ATCC; [2]) was 80.5 µM and the GI50 (SK-MEL-5; Homo sapiens) was 12.9 µM. The CC50 (SK-MEL-5; [2]) was 51.8 µM, the TGI (SK-MEL-5) was 25.8 µM and the GI50 (OVCAR-8; Homo sapiens) was 22.1 µM. For the same compound, the CC50 (OVCAR-8; [2]) was greater than 100 µM and the TGI (OVCAR-8) was 49.1 µM.
